The NIST ThermoML archive (doi:10.1016/j.fluid.2005.11.016)
Numbers after ± are expanded uncertainties.

Tests used:
[1] = Liquid
[2] = excess molar enthalpy (molar enthalpy of mixing); xn = mol fraction of the nth substance listed; conditions: 303.15 K, 101 kPa, Liquid, Calvet calorimetry

SMILES	vapor or sublimation pressure ([1]; 263.15 K) [kPa]	vapor or sublimation pressure ([1]; 273.15 K) [kPa]	vapor or sublimation pressure ([1]; 283.15 K) [kPa]	vapor or sublimation pressure ([1]; 293.15 K) [kPa]	vapor or sublimation pressure ([1]; 303.15 K) [kPa]	vapor or sublimation pressure ([1]; 313.15 K) [kPa]	vapor or sublimation pressure ([1]; 323.15 K) [kPa]	vapor or sublimation pressure ([1]; 333.15 K) [kPa]	vapor or sublimation pressure ([1]; 343.15 K) [kPa]	vapor or sublimation pressure ([1]; 353.15 K) [kPa]	further results
Cc1cccc(C)n1 [2,6-dimethylpyridine]	0.065 ± 0.007	0.143 ± 0.011	0.296 ± 0.017	0.575 ± 0.028	1.061 ± 0.048	1.868 ± 0.055	3.154 ± 0.066	5.129 ± 0.082	8.066 ± 0.11	12.31 ± 0.14	–
Cc1cccc(C)n1 [2,6-dimethylpyridine] + Cc1ccccc1	–	–	–	–	–	–	–	–	–	–	excess molar enthalpy ([2]; x1 = 0.0145): 0.0148 ± 0.00239 kcal/mol; excess molar enthalpy ([2]; x1 = 0.2129): 0.0198 ± 0.00239 kcal/mol; excess molar enthalpy ([2]; x1 = 0.2993): 0.0203 ± 0.00239 kcal/mol; excess molar enthalpy ([2]; x1 = 0.3406): 0.021 ± 0.00239 kcal/mol; excess molar enthalpy ([2]; x1 = 0.434): 0.0206 ± 0.00239 kcal/mol; excess molar enthalpy ([2]; x1 = 0.4479): 0.0208 ± 0.00239 kcal/mol; excess molar enthalpy ([2]; x1 = 0.5547): 0.0191 ± 0.00239 kcal/mol; excess molar enthalpy ([2]; x1 = 0.5885): 0.0182 ± 0.00239 kcal/mol; excess molar enthalpy ([2]; x1 = 0.6718): 0.0167 ± 0.00239 kcal/mol; excess molar enthalpy ([2]; x1 = 0.7056): 0.0163 ± 0.00239 kcal/mol; excess molar enthalpy ([2]; x1 = 0.7248): 0.0153 ± 0.00239 kcal/mol; excess molar enthalpy ([2]; x1 = 0.7746): 0.012 ± 0.00239 kcal/mol; excess molar enthalpy ([2]; x1 = 0.8563): 0.00837 ± 0.00239 kcal/mol
Cc1cncc(C)c1 [3,5-dimethylpyridine]	0.016 ± 0.003	0.038 ± 0.005	0.083 ± 0.008	0.169 ± 0.012	0.325 ± 0.018	0.596 ± 0.029	1.049 ± 0.047	1.775 ± 0.055	2.904 ± 0.064	4.603 ± 0.079	–
Cc1cncc(C)c1 [3,5-dimethylpyridine] + Cc1ccccc1	–	–	–	–	–	–	–	–	–	–	excess molar enthalpy ([2]; x1 = 0.1248): 0.0131 ± 0.00239 kcal/mol; excess molar enthalpy ([2]; x1 = 0.1817): 0.0163 ± 0.00239 kcal/mol; excess molar enthalpy ([2]; x1 = 0.2194): 0.0186 ± 0.00239 kcal/mol; excess molar enthalpy ([2]; x1 = 0.3217): 0.0215 ± 0.00239 kcal/mol; excess molar enthalpy ([2]; x1 = 0.4079): 0.0253 ± 0.00239 kcal/mol; excess molar enthalpy ([2]; x1 = 0.5991): 0.0263 ± 0.00239 kcal/mol; excess molar enthalpy ([2]; x1 = 0.6191): 0.0256 ± 0.00239 kcal/mol
Cc1ccccc1 [toluene]	0.468 ± 0.024	0.908 ± 0.043	1.666 ± 0.056	2.911 ± 0.07	4.873 ± 0.093	7.852 ± 0.13	12.23 ± 0.18	18.46 ± 0.26	27.12 ± 0.37	38.87 ± 0.52	–
